Source: patent publication US4304903A, “D-Erythro-2,3-dihydroxy-1-(1-phenyl-1H-pyrazolo(3,4-b)quinoxalin-3-y l)-propyl-4-O-α-D-glucopyranosyl-alpha-D-glucopyranoside poly(H-sulfate)salts” (American Cyanamid Company, priority 1980, dated 1981)
Where a name gives a salt, the structure may show the parent alone. Read-outs that look alike come from different tables or passages of the source.

Legend:
[1] = test system: late components of human complement (C3-C9); assay: Test Code 035 (C3-C9 inhibitor); format: biochemical; set-up: key: N = Inactive; conditions: serial twofold dilution assay; higher well number indicates higher activity; lysis of EAC 142
Text: (§1) An active inhibitor protects C2 from C1 and C4; (ii) Test Code 035 (C3-C9 inhibitor)--This test determines the ability of the late components of human complement (C3-C9) to lyse EAC 142 in the presence of appropriate dilutions of the test compound. An active inhibitor protects EAC 142 from lysis by human C3-C9; (iii) Test Code 036 (C-Shunt inhibitor)--In this test human erythrocytes rendered fragile are lysed in autologous serum via the shunt pathway activated by cobra venom factor in the presence of appropriate dilutions of the test compound. Inhibition of the shunt pathway results in failure of lysis; (iv) Forssman Vasculitis Test--Here, the well known complement dependent lesion, Forssman vasculitis, is produced in guinea pigs by intradermal injection of rabbit anti-Forssman antiserum. […] Percent inhibition is calculated by comparison with simultaneous controls. […]

[2] = test system: serum complement activity; assay: Guinea Pig Intraperitoneal Test (GPIP); format: in vivo; conditions: Cavia porcellus, ip, 200 mg./kg. i.p.
Text: An active inhibitor protects C2 from C1 and C4; (ii) Test Code 035 (C3-C9 inhibitor)--This test determines the ability of the late components of human complement (C3-C9) to lyse EAC 142 in the presence of appropriate dilutions of the test compound. An active inhibitor protects EAC 142 from lysis by human C3-C9; (iii) Test Code 036 (C-Shunt inhibitor)--In this test human erythrocytes rendered fragile are lysed in autologous serum via the shunt pathway activated by cobra venom factor in the presence of appropriate dilutions of the test compound. Inhibition of the shunt pathway results in failure of lysis; (iv) Forssman Vasculitis Test--Here, the well known complement dependent lesion, Forssman vasculitis, is produced in guinea pigs by intradermal injection of rabbit anti-Forssman antiserum. The lesion is measured in terms of diameter, edema and hemorrhage and the extent to which a combined index of these is inhibited by prior intraperitoneal injection of the test compound at 200 mg./kg. is then reported, unless otherwise stated; (v) Forssman Shock Test--Lethal shock is produced in guinea pigs by an i.v. injection of anti-Forssman antiserum and the harmonic mean death time of treated guinea pigs is compared with that of simultaneous controls; (vi) Complement Level Reduction Test--In this test, the above dosed guinea pigs, or others, are bled for serum and the complement level is determind in undiluted serum by the capillary tube method of U.S. Pat. No. 3,876,376 and compared to undosed control guinea pigs; (vii) Cap 50 Test--Here, appropriate amounts of the test compound are added to a pool of quinea Pig serum in vitro, after which the undiluted serum capillary tube assay referred to above is run. The concentration of compound inhibiting 50% is reported; (viii) Guinea Pig Intraperitoneal Test (GPIP)--Guinea pigs weighing about 300 g. are dosed intraperitoneally (i.p.) with 200 mg./kg. of the test compound dissolved in saline and adjusted to pH 7-8. […] Percent inhibition is calculated by comparison with simultaneous controls. […]

activated human C1 = target: T1, activated human C1 (Homo sapiens, UniProt P09871); assay: Test Code 026 (C1 inhibitor); format: biochemical; conditions: serial twofold dilution assay; higher well number indicates higher activity
T1 sequence (P09871 16-437 limits assumed): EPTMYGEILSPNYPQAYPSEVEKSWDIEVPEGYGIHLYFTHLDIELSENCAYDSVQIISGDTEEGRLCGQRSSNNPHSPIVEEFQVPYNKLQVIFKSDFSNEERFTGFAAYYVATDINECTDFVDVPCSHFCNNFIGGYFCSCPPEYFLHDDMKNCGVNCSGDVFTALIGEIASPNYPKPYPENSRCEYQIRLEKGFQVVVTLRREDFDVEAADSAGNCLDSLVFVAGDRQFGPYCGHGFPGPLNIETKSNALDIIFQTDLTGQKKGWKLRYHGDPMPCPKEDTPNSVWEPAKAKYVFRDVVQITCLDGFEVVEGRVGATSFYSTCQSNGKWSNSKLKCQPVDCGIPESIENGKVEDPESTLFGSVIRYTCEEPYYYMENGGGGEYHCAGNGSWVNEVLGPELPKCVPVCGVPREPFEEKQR
T1 sequence (P09871 438-688 limits assumed): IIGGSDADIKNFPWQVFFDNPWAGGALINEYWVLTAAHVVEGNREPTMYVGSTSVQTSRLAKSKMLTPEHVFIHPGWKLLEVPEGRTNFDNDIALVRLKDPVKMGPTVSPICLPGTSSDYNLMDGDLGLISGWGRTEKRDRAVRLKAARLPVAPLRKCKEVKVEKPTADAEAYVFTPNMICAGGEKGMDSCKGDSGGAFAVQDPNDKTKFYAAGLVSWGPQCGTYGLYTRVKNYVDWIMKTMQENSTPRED
Text: as §1

026 In Vitro Activity (activity in wells) (activated human C1)	SMILES	035 In Vitro Activity (activity in wells) [1]	inhibition at 200 mg/kg ([2]; 0.5 h, serum 30 minutes after injection, read-out: In Vivo Activity (Guinea Pig) (Intraperitoneal) % Inhibition, 30 minutes)	inhibition at 200 mg/kg ([2]; 1 h, serum 60 minutes after injection, read-out: In Vivo Activity (Guinea Pig) (Intraperitoneal) % Inhibition, 60 minutes)	inhibition at 200 mg/kg ([2]; 2 h, serum 120 minutes after injection, read-out: In Vivo Activity (Guinea Pig) (Intraperitoneal) % Inhibition, 120 minutes)
–	O=S(=O)(O)OC[C@H]1O[C@H](O[C@@H](c2nn(-c3ccccc3)c3nc4ccccc4nc23)[C@@H](COS(=O)(=O)O)OS(=O)(=O)O)[C@H](OS(=O)(=O)O)[C@@H](OS(=O)(=O)O)[C@@H]1O[C@H]1O[C@H](COS(=O)(=O)O)[C@@H](OS(=O)(=O)O)[C@H](OS(=O)(=O)O)[C@H]1OS(=O)(=O)O [D-Erythro-2,3-dihydroxy-1-(1-phenyl-1H-pyrazolo[3,4-b]quinox] [D-Erythro-2,3-dihydroxy-1-(1-phenyl-1H-pyrazolo[3,4-b]quinoxalin-3-yl)propyl-4-O-α-D-glucopyranosyl-α-D-glucopyranoside, nonakis(H-sulfate), nonasalt with trimethylamine]	N	–	–	–
–	O=S(=O)(O)OC[C@H]1O[C@H](O[C@@H](c2nn(-c3ccccc3)c3nc4ccccc4nc23)[C@@H](COS(=O)(=O)O)OS(=O)(=O)O)[C@H](OS(=O)(=O)O)[C@@H](OS(=O)(=O)O)[C@@H]1O[C@H]1O[C@H](COS(=O)(=O)O)[C@@H](OS(=O)(=O)O)[C@H](OS(=O)(=O)O)[C@H]1OS(=O)(=O)O [D-Erythro-2,3-dihydroxy-1-(1-phenyl-1H-pyrazolo[3,4-b]quinoxalin-3-yl)propyl-4-O-α-D-glucopyranosyl-α-D-glucopyranoside, nonakis(H-sulfate), nonasodium salt]	–	-58%	-56%	-76%
+5 wells	Cc1cc2nc3c([C@H](O[C@H]4O[C@H](COS(=O)(=O)O)[C@@H](O[C@H]5O[C@H](COS(=O)(=O)O)[C@@H](OS(=O)(=O)O)[C@H](OS(=O)(=O)O)[C@H]5OS(=O)(=O)O)[C@H](OS(=O)(=O)O)[C@H]4OS(=O)(=O)O)[C@@H](COS(=O)(=O)O)OS(=O)(=O)O)nn(-c4ccccc4)c3nc2cc1C [D-Erythro-2,3-dihydroxy-1-(6,7-dimethyl-1-phenyl-1H-pyrazolo[3,4-b]quinoxalin-3-yl)propyl-4-O-α-D-glucopyranosyl-α-D-glucopyranoside, nonakis(H-sulfate), nonasalt with trimethylamine]	+1 wells	–	–	–
